Measured values from PubChem BioAssay AID192 (DTP/NCI, 2004).
Several values for one entry are separate records, joined by “and”; a condition that tells them apart may be missing. Identical values can stand only once. Toxic doses and inconclusive results are not listed.

Test system: BDF1 mice, B16 melanoma ip, median survival T/C
Experiment: NCI In Vivo Anticancer Drug Screen. Data for tumor model B16 Melanoma (intraperitoneal) in B6D2F1 (BDF1) mice
Conditions: endpoint: median survival time, higher = longer survival
Procedure, shortened: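 Mice with transplantable tumors; drug vs vehicle groups; endpoint survival or tumor size; value = T/C.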

[1] = dose: 100.0 mg/kg/injection, schedule: Q01DX009 (ip), vehicle: saline with Tween-80
[2] = dose: 200.0 mg/kg/injection, schedule: Q01DX009 (ip), vehicle: saline with Tween-80
[3] = dose: 400.0 mg/kg/injection, schedule: Q01DX009 (ip), vehicle: saline with Tween-80
[4] = dose: 12.5 mg/kg/injection, schedule: Q01DX009 (ip), vehicle: saline with Tween-80
[5] = dose: 25.0 mg/kg/injection, schedule: Q01DX009 (ip), vehicle: saline with Tween-80
[6] = dose: 100.0 mg/kg/injection, schedule: Q01DX009 (ip), vehicle: Klucel (hydroxypropylcellulose) (HPC)
[7] = dose: 200.0 mg/kg/injection, schedule: Q01DX009 (ip), vehicle: Klucel (hydroxypropylcellulose) (HPC)
[8] = dose: 400.0 mg/kg/injection, schedule: Q01DX009 (ip), vehicle: Klucel (hydroxypropylcellulose) (HPC)

O=C(O)C1OC1c1ccccc1 (configuration not stated)
T/C [1]: 97 % of control | T/C [2]: 102 % of control | T/C [3]: 100 % of control

CCCCNC1=C(N2CC2)C(=O)C(NCCCC)=C(N2CC2)C1=O
T/C (dose: 1.25 mg/kg/injection, schedule: Q01DX009 (ip), vehicle: saline): 113 % of control | T/C (dose: 2.5 mg/kg/injection, schedule: Q01DX009 (ip), vehicle: saline): 112 % of control

Cc1ccc(NC(=O)N(CCCl)N=O)cc1C
T/C (dose: 3.12 mg/kg/injection, schedule: Q01DX009 (ip), vehicle: Klucel (hydroxypropylcellulose) (HPC)): 150 % of control | T/C (dose: 6.25 mg/kg/injection, schedule: Q01DX009 (ip), vehicle: Klucel (hydroxypropylcellulose) (HPC)): 150 % of control

O=C(O)C1(NO)CCCC1
T/C (dose: 100.0 mg/kg/injection, schedule: Q01DX009 (ip), vehicle: saline): 87 % of control

CC(=N\O)/C(C)=N/O.CC(=N\O)/C(C)=N/O.[Ni]
T/C (dose: 3.0 mg/kg/injection, schedule: Q01DX009 (ip), vehicle: saline with Tween-80): 93 % of control | T/C (dose: 6.0 mg/kg/injection, schedule: Q01DX009 (ip), vehicle: saline with Tween-80): 87 % of control

C=CCNC(=S)Nc1cccc(Cl)c1C
T/C (dose: 12.5 mg/kg/injection, schedule: Q04DX003 (ip), vehicle: Klucel (hydroxypropylcellulose) (HPC)): 93 % of control | T/C (dose: 25.0 mg/kg/injection, schedule: Q04DX003 (ip), vehicle: Klucel (hydroxypropylcellulose) (HPC)): 100 % of control | T/C (dose: 50.0 mg/kg/injection, schedule: Q04DX003 (ip), vehicle: Klucel (hydroxypropylcellulose) (HPC)): 100 % of control

C=C1C(=O)OC2C1CCC(=C)C1CC(O)C(=C)C12 (configuration not stated)
T/C (dose: 67.0 mg/kg/injection, schedule: Q01DX009 (ip), vehicle: saline with Tween-80): 87 % of control | T/C [1]: 87 % of control

[CH3][Sn]([CH3])([CH3])[S]C(=S)N1CCOCC1
T/C (dose: 0.75 mg/kg/injection, schedule: Q01DX009 (ip), vehicle: Klucel (hydroxypropylcellulose) (HPC)): 100 % of control | T/C (dose: 1.5 mg/kg/injection, schedule: Q01DX009 (ip), vehicle: Klucel (hydroxypropylcellulose) (HPC)): 95 % of control

ClC(Cl)(Cl)c1nc2nccnc2[nH]1
T/C (dose: 3.13 mg/kg/injection, schedule: Q01DX009 (ip), vehicle: saline with Tween-80): 102 % of control | T/C (dose: 6.25 mg/kg/injection, schedule: Q01DX009 (ip), vehicle: saline with Tween-80): 94 % of control | T/C [4]: 105 % of control | T/C [5]: 91 % of control

O=[N+]([O-])CC1(O)CCCCC1
T/C (dose: 12.5 mg/kg/injection, schedule: Q01DX009 (ip), vehicle: Klucel (hydroxypropylcellulose) (HPC)): 102 % of control | T/C (dose: 25.0 mg/kg/injection, schedule: Q01DX009 (ip), vehicle: Klucel (hydroxypropylcellulose) (HPC)): 94 % of control

CNC(Cc1ccccc1)c1ccc(OC)c(OC)c1 (configuration not stated)
T/C [6]: 100 % of control | T/C [7]: 100 % of control | T/C [8]: 103 % of control

CCCCCCCCCCCCCCCCCCOCCCCCCCCCCCCCCCCCC
T/C [1]: 90 % of control | T/C [3]: 88 % of control

Cc1cccc(NC(=O)c2ccc(Cl)cc2)c1C
T/C [6]: 93 % of control | T/C [7]: 89 % of control | T/C [8]: 89 % of control

Cc1ccccc1SSc1ccccc1C
T/C [4]: 105 % of control | T/C [5]: 104 % of control | T/C (dose: 50.0 mg/kg/injection, schedule: Q01DX009 (ip), vehicle: saline with Tween-80): 98 % of control | T/C [1]: 103 % of control | T/C [2]: 98 % of control

CC(=O)OC1C(C)OC(OC(=O)C2CCC3C(C2)OC2(CC(OC(=O)/C=C/c4ccccc4)C(C)CO2)C32CO2)C(OC2OC(C)C(O)C(OC(C)=O)C2O)C1O (configuration not stated)
T/C (dose: 6.0 mg/kg/injection, schedule: Q01DX009 (ip), vehicle: saline + alcohol): 152 % of control | T/C (dose: 12.0 mg/kg/injection, schedule: Q01DX009 (ip), vehicle: saline + alcohol): 186 % of control | T/C (dose: 24.0 mg/kg/injection, schedule: Q01DX009 (ip), vehicle: saline + alcohol): 205 % of control | T/C (dose: 48.0 mg/kg/injection, schedule: Q01DX009 (ip), vehicle: saline + alcohol): 193 % of control

C=CC(C)NC(=S)NNC(=S)NC (configuration not stated)
T/C (dose: 25.0 mg/kg/injection, schedule: Q01DX009 (ip), vehicle: saline + alcohol): 97 % of control | T/C (dose: 50.0 mg/kg/injection, schedule: Q01DX009 (ip), vehicle: saline + alcohol): 102 % of control | T/C (dose: 100.0 mg/kg/injection, schedule: Q01DX009 (ip), vehicle: saline + alcohol): 104 % of control | T/C (dose: 200.0 mg/kg/injection, schedule: Q01DX009 (ip), vehicle: saline + alcohol): 98 % of control | T/C (dose: 400.0 mg/kg/injection, schedule: Q01DX009 (ip), vehicle: saline + alcohol): 97 % of control

N=c1c2ncn(Cc3cccc(C(F)(F)F)c3)c2ncn1O
T/C (dose: 0.09 mg/kg/injection, schedule: Q01DX009 (ip), vehicle: Klucel (hydroxypropylcellulose) (HPC)): 93 % of control | T/C (dose: 0.19 mg/kg/injection, schedule: Q01DX009 (ip), vehicle: Klucel (hydroxypropylcellulose) (HPC)): 90 % of control | T/C (dose: 0.25 mg/kg/injection, schedule: Q04DX003 (ip), vehicle: Klucel (hydroxypropylcellulose) (HPC)): 97 % of control | T/C (dose: 0.39 mg/kg/injection, schedule: Q01DX009 (ip), vehicle: Klucel (hydroxypropylcellulose) (HPC)): 93 % of control | T/C (dose: 0.5 mg/kg/injection, schedule: Q04DX003 (ip), vehicle: Klucel (hydroxypropylcellulose) (HPC)): 95 % of control | T/C (dose: 0.78 mg/kg/injection, schedule: Q01DX009 (ip), vehicle: Klucel (hydroxypropylcellulose) (HPC)): 91 % of control | T/C (dose: 1.0 mg/kg/injection, schedule: Q04DX003 (ip), vehicle: Klucel (hydroxypropylcellulose) (HPC)): 92 % of control | T/C (dose: 1.4 mg/kg/injection, schedule: Q04DX003 (ip), vehicle: Klucel (hydroxypropylcellulose) (HPC)): 107 % of control | T/C (dose: 1.56 mg/kg/injection, schedule: Q01DX009 (ip), vehicle: Klucel (hydroxypropylcellulose) (HPC)): 88 % of control | T/C (dose: 2.2 mg/kg/injection, schedule: Q04DX003 (ip), vehicle: Klucel (hydroxypropylcellulose) (HPC)): 107 % of control | T/C (dose: 3.3 mg/kg/injection, schedule: Q04DX003 (ip), vehicle: Klucel (hydroxypropylcellulose) (HPC)): 95 % of control

[Cl][Mn][Cl]
T/C (dose: 6.25 mg/kg/injection, schedule: Q01DX009 (ip), vehicle: water): 100 % of control | T/C (dose: 12.5 mg/kg/injection, schedule: Q01DX009 (ip), vehicle: water): 98 % of control | T/C (dose: 17.8 mg/kg/injection, schedule: Q01DX009 (ip), vehicle: saline): 104 % of control | T/C (dose: 17.8 mg/kg/injection, schedule: Q01DX009 (sc), vehicle: water): 101 % of control | T/C (dose: 25.0 mg/kg/injection, schedule: Q01DX009 (ip), vehicle: water): 109 % of control | T/C (dose: 26.7 mg/kg/injection, schedule: Q01DX009 (ip), vehicle: saline): 110 % of control and 114 % of control | T/C (dose: 26.7 mg/kg/injection, schedule: Q01DX009 (sc), vehicle: water): 99 % of control | T/C (dose: 40.0 mg/kg/injection, schedule: Q01DX009 (ip), vehicle: saline): 107 % of control and 117 % of control | T/C (dose: 40.0 mg/kg/injection, schedule: Q01DX009 (sc), vehicle: water): 104 % of control | T/C (dose: 50.0 mg/kg/injection, schedule: Q01DX009 (ip), vehicle: water): 114 % of control | T/C (dose: 60.0 mg/kg/injection, schedule: Q01DX009 (ip), vehicle: saline): 106 % of control and 119 % of control | T/C (dose: 60.0 mg/kg/injection, schedule: Q01DX009 (ip), vehicle: water): 163 % of control | T/C (dose: 60.0 mg/kg/injection, schedule: Q01DX009 (sc), vehicle: water): 104 % of control | T/C (dose: 90.0 mg/kg/injection, schedule: Q01DX009 (sc), vehicle: water): 104 % of control

c1ccc2[nH]c(/N=N/c3nc4ccccc4[nH]3)nc2c1
T/C [6]: 102 % of control | T/C [7]: 102 % of control | T/C [8]: 91 % of control

CSc1ccc2c(c1)N(CCCN(C)C)c1ccccc1S2
T/C (dose: 3.12 mg/kg/injection, schedule: Q01DX009 (ip), vehicle: saline): 100 % of control | T/C (dose: 6.25 mg/kg/injection, schedule: Q01DX009 (ip), vehicle: saline): 107 % of control and 112 % of control | T/C (dose: 12.5 mg/kg/injection, schedule: Q01DX009 (ip), vehicle: saline): 97 % of control and 124 % of control | T/C (dose: 25.0 mg/kg/injection, schedule: Q01DX009 (ip), vehicle: saline): 100 % of control and 124 % of control

C=CCNC(=S)Nc1cc(Cl)ccc1OC
T/C [6]: 93 % of control | T/C [7]: 93 % of control | T/C [8]: 93 % of control

Cc1ccc(NC(=O)COc2cc(Cl)c(Cl)cc2Cl)c([N+](=O)[O-])c1
T/C [6]: 93 % of control | T/C [7]: 100 % of control
